# From EPA's ToxValDB 9.5 (doi:10.2903/j.efsa.2008.169r)
# Legend:
# [1] = tested on: Oncorhynchus mykiss
# [2] = tested on: Apis mellifera; conditions: acute; duration: 48 hours; dermal; mortality
# [3] = tested on: Rattus norvegicus
# [4] = tested on: Coturnix coturnix; conditions: mortality; for LD50: acute, oral
# [5] = tested on: Daphnia magna; conditions: chronic/long-term, reproduction
# [6] = tested on: Canidae; conditions: subchronic; duration: 90 days; oral; Dog Other; organ weight
# [7] = tested on: Tagia sp.; conditions: acute; duration: 14 days; mortality
# [8] = tested on: Aphidius rhopalosiphi; test: LR50; higher = less toxic; conditions: not reported; mortality
compound,measurement,setting,value
COCCN(C(=O)CCl)c1c(C)cccc1C [Dimethachlor],LC50,"[1]; acute, duration: 96 hours, mortality",3.9 µg/mL
same,NOEC,"[1]; chronic/long-term, duration: 21 days, growth",0.85 mg/L
same,LD50,[2],> 200 µg/piece
same,LD50,"[3]; acute, oral, mortality",1600 mg/kg-day
same,NOAEL,"[3]; chronic, duration: 2 years, body weight",11.1 mg/kg-day
same,NOEL,"[3]; chronic, mortality",20 mg/kg-day
same,NOAEL,"[3]; developmental, development",50 mg/kg-day
same,LD50,[4]; diet,> 1470 mg/kg-day
same,LD50,[4],524 mg/kg-day
same,NOEL,"[4]; reproduction developmental, duration: 140 days",102 mg/kg-day
same,NOEC,[5]; duration: 21 days,0.476 mg/L
same,NOEC,[5]; duration: 22 days,2.3 mg/L
same,NOAEL,[6],10 mg/kg-day
same,LC50,[7],> 70 mg/kg
same,LR50,[8],91 g/ha
